Results published in patent US20140323477A1, “SERINE/THREONINE KINASE INHIBITORS” (Genentech, Inc., priority 2013, published 2014).

What follows are compounds tested against T1, human recombinant PAK1-KD protein (Homo sapiens, UniProt Q13153) (assay: PAK1-KD (kinase domain) IC50 Zlyte assay). Conditions: Z′-LYTE FRET peptide substrate (Ser/Thr19), 20 pM PAK1-KD, 60-minute incubation at 22° C.
T1 construct: made in house; host or cells: Tini cells (insect cells) infected with recombinant baculovirus
T1 sequence (Q13153 270-521 limits assumed): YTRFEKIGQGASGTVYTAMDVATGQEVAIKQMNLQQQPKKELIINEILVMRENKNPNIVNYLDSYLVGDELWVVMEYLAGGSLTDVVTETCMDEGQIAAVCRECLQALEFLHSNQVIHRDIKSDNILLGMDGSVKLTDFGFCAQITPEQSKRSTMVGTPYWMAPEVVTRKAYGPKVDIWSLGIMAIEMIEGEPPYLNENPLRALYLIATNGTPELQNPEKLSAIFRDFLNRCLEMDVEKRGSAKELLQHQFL
Type: biochemical
Text: PAK1-KD (Kinase Domain) IC50 Zlyte Assay Protocol
Activity of human recombinant PAK1-KD protein may be assessed in vitro by assay of the phosphorylation of a FRET peptide substrate. Catalytically active human recombinant PAK1-KD protein is obtained by purification from Tini cells infected with a human PAK1-KD recombinant baculovirus expression vector.
The activity/inhibition of PAK1-KD was estimated by measuring the phosphorylation of a FRET peptide substrate (Ser/Thr19) labeled with coumarin and fluorescein using Z′-LYTE™ assay (Invitrogen). The peptide substrate is a consensus sequence (KKRNRRLSVA) based on various PAK substrates reported in the scientific literature. The 10 μL assay mixtures contained 50 mM HEPES (pH 7.5), 0.01% Brij-35, 10 mM MgCl2, 1 mM EGTA, 2 μM FRET peptide substrate, and 20 pM PAK1-KD. Incubations were carried out at 22° C. in black polypropylene 384-well plates (Corning Costar). […] Following the 60-minute incubation, the assay mixtures were quenched by the addition of 5 μL of Z′-LYTETm development reagent, and 1 hour later the emissions of Coumarin (445 nm) and Fluorescein (520 nm) were determined after excitation at 400 nm using an Envision plate reader (Perkin Elmer). An emission ratio (445 nm/520 nm) was determined to quantify the degree of substrate phosphorylation.

Structure (SMILES) | IC50 [nM]
CCn1c(=O)c(-c2cccc(S(=O)(=O)N(C)C)c2)cc2cnc(NCCC3CCN(C)CC3)nc21 [Compound I-1, 3-[8-ethyl-2-[2-(1-methyl-4-piperidyl)ethylamino]-7-oxo-pyrido[2,3-d]pyrimidin-6-yl]-N,N-dimethyl-benzenesulfonamide] | 182
CCNS(=O)(=O)c1ccc(-c2cc3cnc(NCCC4CCN(C)CC4)nc3n(CC)c2=O)c(C)c1 [Compound I-2, N-ethyl-4-[8-ethyl-2-[2-(1-methyl-4-piperidyl)ethylamino]-7-oxo-pyrido[2,3-d]pyrimidin-6-yl]-3-methyl-benzenesulfonamide] | 133
CCn1c(=O)c(-c2ccc(S(=O)(=O)N(C)C)cc2C)cc2cnc(NCCC3CCN(C)CC3)nc21 [Compound I-3, 4-[8-ethyl-2-[2-(1-methyl-4-piperidyl)ethylamino]-7-oxo-pyrido[2,3-d]pyrimidin-6-yl]-N,N,3-trimethyl-benzenesulfonamide] | 1320
CCn1c(=O)c(-c2ccc(S(=O)(=O)N3CCOCC3)cc2C)cc2cnc(NCCC3CCN(C)CC3)nc21 [Compound I-4, 8-ethyl-6-(2-methyl-4-morpholinosulfonyl-phenyl)-2-[2-(1-methyl-4-piperidyl)ethylamino]pyrido[2,3-d]pyrimidin-7-one] | 751
CCn1c(=O)c(-c2ccc(S(=O)(=O)N3CCCC3)cc2C)cc2cnc(NCCC3CCN(C)CC3)nc21 [Compound I-5, 8-ethyl-2-[2-(1-methyl-4-piperidyl)ethylamino]-6-(2-methyl-4-pyrrolidin-1-ylsulfonyl-phenyl)pyrido[2,3-d]pyrimidin-7-one] | 460
CCn1c(=O)c(-c2ccc(S(=O)(=O)NC3CC3)cc2C)cc2cnc(NCCC3CCN(C)CC3)nc21 [Compound I-6, N-cyclopropyl-4-[8-ethyl-2-[2-(1-methyl-4-piperidyl)ethylamino]-7-oxo-pyrido[2,3-d]pyrimidin-6-yl]-3-methyl-benzenesulfonamide] | 77.1
CCn1c(=O)c(-c2ccc(S(=O)(=O)NC)cc2C)cc2cnc(NCCC3CCN(C)CC3)nc21 [Compound I-7, 4-[8-ethyl-2-[2-(1-methyl-4-piperidyl)ethylamino]-7-oxo-pyrido[2,3-d]pyrimidin-6-yl]-N,3-dimethyl-benzenesulfonamide] | 582
CCNS(=O)(=O)c1ccc(-c2cc3cnc(NCCC4CCN(C)CC4)nc3n(CC)c2=O)c(Cl)c1 [Compound I-8, 3-chloro-N-ethyl-4-[8-ethyl-2-[2-(1-methyl-4-piperidyl)ethylamino]-7-oxo-pyrido[2,3-d]pyrimidin-6-yl]benzenesulfonamide] | 22.3
CCNc1ncc2cc(-c3ccc(S(=O)(=O)NCC)cc3Cl)c(=O)n(CC)c2n1 [Compound I-9, 3-chloro-N-ethyl-4-[8-ethyl-2-(ethylamino)-7-oxo-pyrido[2,3-d]pyrimidin-6-yl]benzenesulfonamide] | 131
CNS(=O)(=O)c1ccc(-c2cc3cnc(NCCC4CCN(C)CC4)nc3n(C)c2=O)c(Cl)c1 [Compound I-10, 3-chloro-N-methyl-4-[8-methyl-2-[2-(1-methyl-4-piperidyl)ethylamino]-7-oxo-pyrido[2,3-d]pyrimidin-6-yl]benzenesulfonamide] | 820
CCNc1ncc2cc(-c3ccc(S(=O)(=O)NC)cc3Cl)c(=O)n(C)c2n1 [Compound I-11, 3-chloro-4-[2-(ethylamino)-8-methyl-7-oxo-pyrido[2,3-d]pyrimidin-6-yl]-N-methyl-benzenesulfonamide] | 1600
CCNc1ncc2cc(-c3ccc(S(=O)(=O)NC(C)C)cc3Cl)c(=O)n(C)c2n1 [Compound I-12, 3-chloro-4-[2-(ethylamino)-8-methyl-7-oxo-pyrido[2,3-d]pyrimidin-6-yl]-N-isopropyl-benzenesulfonamide] | 177
CC(C)NS(=O)(=O)c1ccc(-c2cc3cnc(NCCC4CCN(C)CC4)nc3n(C)c2=O)c(Cl)c1 [Compound I-13, 3-chloro-N-isopropyl-4-[8-methyl-2-[2-(1-methyl-4-piperidyl)ethylamino]-7-oxo-pyrido[2,3-d]pyrimidin-6-yl]benzenesulfonamide] | 80.4
CCn1c(=O)c(-c2cc(S(=O)(=O)N(C)C)ccc2Cl)cc2cnc(NCCC3CCN(C)CC3)nc21 [Compound I-14, 4-chloro-3-[8-ethyl-2-[2-(1-methyl-4-piperidyl)ethylamino]-7-oxo-pyrido[2,3-d]pyrimidin-6-yl]-N,N-dimethyl-benzenesulfonamide] | 310
